Measured values: ChEMBL document CHEMBL1136663, “Structure-activity relationships studies of the anti-angiogenic activities of linomide” (Bioorg Med Chem Lett, 2003)
pIC50: −log10 of the molar value.

Tests used:
Gallus gallus = species: Gallus gallus; test: Effective concentration for inhibiting blood vessel formation in the CAM (Chicken chorioallantoic membrane) angiogenesis assay.; assay type: functional
PC-3 = test: Antiproliferative activity against PC-3 prostate cancer cells; assay type: functional, cell-based; details: Homo sapiens
HUVEC = test: Inhibitory concentration against Human umbilical vein endothelial cell (HUVEC) proliferation; assay type: functional, cell-based

SMILES | pIC50 (PC-3) | ED50 (Gallus gallus) [µg embryo-1] | pIC50 (HUVEC)
O=C(Nc1ccccc1)c1cc2ccccc2nc1O | < 4.00 | > 100 | 
O=C(Nc1ccccc1)c1c(O)nc2ccccc2c1O | < 4.00 | 0.87 | 5.40
Cn1c(=O)c(C(=O)Nc2ccccc2)c(O)c2ccccc21 | < 4.00 | 18 | 5.14
CN(C)C(=O)c1c(O)c2ccccc2n(C)c1=O | < 4.00 | 8.5 | 4.78

Continued, in another order:

pIC50 (PC-3) | SMILES | ED50 (Gallus gallus) [µg embryo-1] | pIC50 (HUVEC)
< 4.00 | CN(C(=O)c1c(O)nc2ccccc2c1O)c1ccccc1 | 7.5 | 5.18
< 4.00 | CN(C(=O)c1cc2ccccc2n(C)c1=O)c1ccccc1 | > 100 | 
< 4.00 | CN(C(=O)c1c(O)c2ccccc2n(C)c1=O)c1ccccc1 [ROQUINIMEX] | 60.1 | 4.86
